Reference: patent US8192962B2, “Processes for detecting toxic substances” (Daikin Industries, Ltd., priority 2001, dated 2012)

Test system: Metabolism protein genes
Test: DNA chip mRNA expression in yeast, metabolism protein genes (Table 7)
Format: cell-based, Saccharomyces cerevisiae S288C
How it was run: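 Cells were grown at 25° C. in YPD, treated at logarithmic phase for 2 h with a chemical at a concentration inhibiting growth but not causing death, and compared with untreated cultures. Labeled cDNA was hybridized to a DNA chip carrying all yeast genes, and the expression ratio was taken from scanner fluorescence.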

[Cl][Cd][Cl] [(2), CdCl2]
The level of expressed mRNA in the presence of chemical substance/The level of expressed mRNA in the absence of chemical substance (yeast gene YJR155W): 3.7 | The level of expressed mRNA in the presence of chemical substance/The level of expressed mRNA in the absence of chemical substance (yeast gene YKL035W): 0.9 | level of expressed mRNA in the presence/in the absence of chemical substance (yeast gene YKL060C): 0.8 | The level of expressed mRNA in the presence of chemical substance/The level of expressed mRNA in the absence of chemical substance (yeast gene YKL091C): 1.3 | The level of expressed mRNA in the presence of chemical substance/The level of expressed mRNA in the absence of chemical substance (yeast gene YKL104C): 1.0 | level of expressed mRNA in the presence/in the absence of chemical substance (yeast gene YKL148C): 0.8 | The level of expressed mRNA in the presence of chemical substance/The level of expressed mRNA in the absence of chemical substance (yeast gene YKL152C): 1.3 | level of expressed mRNA in the presence/in the absence of chemical substance (yeast gene YKL157W): 1.0 | The level of expressed mRNA in the presence of chemical substance/The level of expressed mRNA in the absence of chemical substance (yeast gene YKL213C): 0.8 | The level of expressed mRNA in the presence of chemical substance/The level of expressed mRNA in the absence of chemical substance (yeast gene YKL215C): 1.1 | level of expressed mRNA in the presence/in the absence of chemical substance (yeast gene YKR034W): 1.5 | The level of expressed mRNA in the presence of chemical substance/The level of expressed mRNA in the absence of chemical substance (yeast gene YLL058W): 3.8 | level of expressed mRNA in the presence/in the absence of chemical substance (yeast gene YLR006C): 0.7 | level of expressed mRNA in the presence/in the absence of chemical substance (yeast gene YLR044C): 0.6 | level of expressed mRNA in the presence/in the absence of chemical substance (yeast gene YLR056W): 0.6 | level of expressed mRNA in the presence/in the absence of chemical substance (yeast gene YLR058C): 0.8 | level of expressed mRNA in the presence/in the absence of chemical substance (yeast gene YLR081W): 0.8 | level of expressed mRNA in the presence/in the absence of chemical substance (yeast gene YLR089C): 1.2 | The level of expressed mRNA in the presence of chemical substance/The level of expressed mRNA in the absence of chemical substance (yeast gene YLR180W): 1.4 | The level of expressed mRNA in the presence of chemical substance/The level of expressed mRNA in the absence of chemical substance (yeast gene YLR273C): 1.0 | level of expressed mRNA in the presence/in the absence of chemical substance (yeast gene YLR284C): 1.0 | The level of expressed mRNA in the presence of chemical substance/The level of expressed mRNA in the absence of chemical substance (yeast gene YLR299W): 1.9 | The level of expressed mRNA in the presence of chemical substance/The level of expressed mRNA in the absence of chemical substance (yeast gene YLR300W): 0.8 | level of expressed mRNA in the presence/in the absence of chemical substance (yeast gene YLR304C): 0.6 | The level of expressed mRNA in the presence of chemical substance/The level of expressed mRNA in the absence of chemical substance (yeast gene YLR307W): 0.4 | The level of expressed mRNA in the presence of chemical substance/The level of expressed mRNA in the absence of chemical substance (yeast gene YLR348C): 4.5 | level of expressed mRNA in the presence/in the absence of chemical substance (yeast gene YLR354C): 2.5 | level of expressed mRNA in the presence/in the absence of chemical substance (yeast gene YLR372W): 0.3 | level of expressed mRNA in the presence/in the absence of chemical substance (yeast gene YML022W): 0.6 | The level of expressed mRNA in the presence of chemical substance/The level of expressed mRNA in the absence of chemical substance (yeast gene YML054C): 1.8 | The level of expressed mRNA in the presence of chemical substance/The level of expressed mRNA in the absence of chemical substance (yeast gene YML070W): 1.7 | The level of expressed mRNA in the presence of chemical substance/The level of expressed mRNA in the absence of chemical substance (yeast gene YML100W): 2.7 | The level of expressed mRNA in the presence of chemical substance/The level of expressed mRNA in the absence of chemical substance (yeast gene YMR008C): 0.9 | level of expressed mRNA in the presence/in the absence of chemical substance (yeast gene YMR011W): 1.0 | level of expressed mRNA in the presence/in the absence of chemical substance (yeast gene YMR015C): 0.7 | The level of expressed mRNA in the presence of chemical substance/The level of expressed mRNA in the absence of chemical substance (yeast gene YMR020W): 1.0 | level of expressed mRNA in the presence/in the absence of chemical substance (yeast gene YMR083W): 1.7 | The level of expressed mRNA in the presence of chemical substance/The level of expressed mRNA in the absence of chemical substance (yeast gene YMR105C): 3.0 | The level of expressed mRNA in the presence of chemical substance/The level of expressed mRNA in the absence of chemical substance (yeast gene YMR189W): 0.8 | level of expressed mRNA in the presence/in the absence of chemical substance (yeast gene YMR205C): 0.7 | level of expressed mRNA in the presence/in the absence of chemical substance (yeast gene YMR261C): 1.6 | The level of expressed mRNA in the presence of chemical substance/The level of expressed mRNA in the absence of chemical substance (yeast gene YMR271C): 1.6 | The level of expressed mRNA in the presence of chemical substance/The level of expressed mRNA in the absence of chemical substance (yeast gene YMR296C): 0.7 | level of expressed mRNA in the presence/in the absence of chemical substance (yeast gene YMR323W): 1.1 | The level of expressed mRNA in the presence of chemical substance/The level of expressed mRNA in the absence of chemical substance (yeast gene YNL012W): 1.3 | level of expressed mRNA in the presence/in the absence of chemical substance (yeast gene YNL025C): 1.4 | The level of expressed mRNA in the presence of chemical substance/The level of expressed mRNA in the absence of chemical substance (yeast gene YNL045W): 1.3 | The level of expressed mRNA in the presence of chemical substance/The level of expressed mRNA in the absence of chemical substance (yeast gene YNL104C): 1.3 | The level of expressed mRNA in the presence of chemical substance/The level of expressed mRNA in the absence of chemical substance (yeast gene YNL106C): 1.4 | The level of expressed mRNA in the presence of chemical substance/The level of expressed mRNA in the absence of chemical substance (yeast gene YNL169C): 1.4 | level of expressed mRNA in the presence/in the absence of chemical substance (yeast gene YNL192W): 1.2 | The level of expressed mRNA in the presence of chemical substance/The level of expressed mRNA in the absence of chemical substance (yeast gene YNL231C): 0.8 | The level of expressed mRNA in the presence of chemical substance/The level of expressed mRNA in the absence of chemical substance (yeast gene YNL322C): 0.9 | The level of expressed mRNA in the presence of chemical substance/The level of expressed mRNA in the absence of chemical substance (yeast gene YNL331C): 3.6 | The level of expressed mRNA in the presence of chemical substance/The level of expressed mRNA in the absence of chemical substance (yeast gene YNL332W): 1.5 | The level of expressed mRNA in the presence of chemical substance/The level of expressed mRNA in the absence of chemical substance (yeast gene YNR019W): 1.3 | The level of expressed mRNA in the presence of chemical substance/The level of expressed mRNA in the absence of chemical substance (yeast gene YNR033W): 0.8 | The level of expressed mRNA in the presence of chemical substance/The level of expressed mRNA in the absence of chemical substance (yeast gene YNR059W): 0.9 | The level of expressed mRNA in the presence of chemical substance/The level of expressed mRNA in the absence of chemical substance (yeast gene YOL058W): 0.5 | level of expressed mRNA in the presence/in the absence of chemical substance (yeast gene YOL086C): 0.5 | level of expressed mRNA in the presence/in the absence of chemical substance (yeast gene YOL108C): 1.5 | level of expressed mRNA in the presence/in the absence of chemical substance (yeast gene YOL116W): 1.0 | The level of expressed mRNA in the presence of chemical substance/The level of expressed mRNA in the absence of chemical substance (yeast gene YOL126C): 0.8 | The level of expressed mRNA in the presence of chemical substance/The level of expressed mRNA in the absence of chemical substance (yeast gene YOL153C): 1.2 | level of expressed mRNA in the presence/in the absence of chemical substance (yeast gene YOL156W): 0.7 | The level of expressed mRNA in the presence of chemical substance/The level of expressed mRNA in the absence of chemical substance (yeast gene YOL165C): 4.5 | level of expressed mRNA in the presence/in the absence of chemical substance (yeast gene YOR002W): 1.1 | level of expressed mRNA in the presence/in the absence of chemical substance (yeast gene YOR085W): 0.8 | The level of expressed mRNA in the presence of chemical substance/The level of expressed mRNA in the absence of chemical substance (yeast gene YOR099W): 1.3 | level of expressed mRNA in the presence/in the absence of chemical substance (yeast gene YOR103C): 0.8 | level of expressed mRNA in the presence/in the absence of chemical substance (yeast gene YOR108W): 0.9 | level of expressed mRNA in the presence/in the absence of chemical substance (yeast gene YOR128C): 0.7 | The level of expressed mRNA in the presence of chemical substance/The level of expressed mRNA in the absence of chemical substance (yeast gene YOR130C): 1.7 | level of expressed mRNA in the presence/in the absence of chemical substance (yeast gene YOR142W): 1.2 | level of expressed mRNA in the presence/in the absence of chemical substance (yeast gene YOR176W): 2.6 | level of expressed mRNA in the presence/in the absence of chemical substance (yeast gene YOR178C): 1.3 | level of expressed mRNA in the presence/in the absence of chemical substance (yeast gene YOR251C): 1.0 | The level of expressed mRNA in the presence of chemical substance/The level of expressed mRNA in the absence of chemical substance (yeast gene YOR336W): 1.4 | The level of expressed mRNA in the presence of chemical substance/The level of expressed mRNA in the absence of chemical substance (yeast gene YOR347C): 0.9 | level of expressed mRNA in the presence/in the absence of chemical substance (yeast gene YOR348C): 0.7 | The level of expressed mRNA in the presence of chemical substance/The level of expressed mRNA in the absence of chemical substance (yeast gene YPL017C): 2.5 | level of expressed mRNA in the presence/in the absence of chemical substance (yeast gene YPL028W): 0.9 | level of expressed mRNA in the presence/in the absence of chemical substance (yeast gene YPL057C): 1.1 | level of expressed mRNA in the presence/in the absence of chemical substance (yeast gene YPL135W): 1.2 | level of expressed mRNA in the presence/in the absence of chemical substance (yeast gene YPL148C): 0.8 | The level of expressed mRNA in the presence of chemical substance/The level of expressed mRNA in the absence of chemical substance (yeast gene YPR026W): 1.2 | level of expressed mRNA in the presence/in the absence of chemical substance (yeast gene YPR113W): 0.8 | level of expressed mRNA in the presence/in the absence of chemical substance (yeast gene YPR165W): 0.7 | The level of expressed mRNA in the presence of chemical substance/The level of expressed mRNA in the absence of chemical substance (yeast gene YPR167C): 5.8 | level of expressed mRNA in the presence/in the absence of chemical substance (yeast gene YPR183W): 1.5
